We go through four compounds from patent US20250092065A1, “2-(INDAZOL-5-YL)-6-(PIPERIDIN-4-YL)-1,7-NAPHTHYRIDINE DERIVATIVES AND RELATED COMPOUNDS AS MODULATORS FOR SPLICING NUCLEIC ACIDS AND FOR THE TREATMENT OF PROLIFERATIVE DISEASES” (REMIX THERAPEUTICS INC., priority 2022, published 2025).

Where two headings read alike, the source gives them in different places.

The subject of one data set is Target C. The data set is described as follows: HiBiT protein abundance assay, Target C (K562 HiBiT knock-in). In kind it is cell-based, human. To be noted: HiBiT knock-in K562 cells, 24 hours, top dose 10 μM. In outline: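 K562 HiBiT knock-in cells (10000/well) were treated 24 h at 37° C with a 10-point 3-fold dilution series (top 10 μM final, ≤0.25% DMSO). HiBiT luminescence was read after lytic LgBiT detection. Percent response used unmodified K562 and DMSO-treated knock-in controls, and IC50 came from a four-parameter fit at 50% of untreated.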

The test system of a further data set is MYB mRNA. The data set is described as follows: RT-qPCR splicing assay, MYB mRNA canonical (CJ) and alternative (AJ) junction. It is filed as cell-based, human. The following applies: Homo sapiens; for AC50: MYB alternative junction mRNA, read-out: MYB AJ (increase in AJ mRNA, AC50). In outline:
(§1)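 A673 or K562 cells treated 24 h at 37 °C with 11-point 3-fold dilutions (top final 10 uM, DMSO ≤0.25%). Lysates analysed by one-step RT-qPCR for canonical (CJ) and alternative-exon (AJ) junctions, normalized to GAPDH, GUSB or PPIA. ΔΔCt vs DMSO, RQ = 2^(−ΔΔCt), expressed as percentage response.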

For the next data set, the system named is HTT. The data set is described as follows: HiBiT protein abundance assay, HTT (K562 HiBiT knock-in). It is filed as cell-based, human. To be noted: HiBiT knock-in K562 cells, 24 hours, top dose 10 μM. In outline: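 Endogenously HiBiT-tagged K562 lines were treated for 24 h at 37 °C with 10-point 3-fold dilutions (top 10 μM final, DMSO ≤0.25%). Lytic LgBiT complementation luminescence was normalized between unmodified K562 (PC) and DMSO-treated tagged cells (NC); IC50 was interpolated at 50% from a four-parameter logistic fit.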

Another data set deals with K562 cells. The experiment in a line: Cell Titer Glo 2.0 cell viability (toxicity) assay, K562. The following applies: 500 cells/well, 72 hours.
The test system of a further data set is HTT mRNA. The experiment in a line: RT-qPCR splicing assay, HTT mRNA canonical (CJ) and alternative (AJ) junction. In kind it is cell-based, human. The following applies: Homo sapiens; for AC50: HTT alternative junction mRNA, read-out: HTT AJ (increase in AJ mRNA, AC50). In outline:
as §1

Setting [1] is: MYB canonical junction mRNA, RT-qPCR, read-out: MYB CJ (decrease in CJ mRNA levels, IC50).
[2] abbreviates: canonical junction qPCR panel, Table 4, read-out: MYB IC50 (decrease in CJ mRNA levels).
[3] abbreviates: HTT canonical junction mRNA, RT-qPCR, read-out: HTT CJ (decrease in CJ mRNA levels, IC50).
Where [4] appears, read: canonical junction qPCR panel, Table 4, read-out: HTT IC50 (decrease in CJ mRNA levels).

As for `Cc1c(O)c(-c2ncc3nc(N4CCC5(CCN5)C4)ccc3n2)cc2cn(C)nc12` (stereo not drawn) [Compound 342, 5-(6-{1,6-diazaspiro[3.4]octan-6-yl}pyrido[3,2-d]pyrimidin-2-yl)-2,7-dimethylindazol-6-ol], the IC50 in the data set on Target C, in the data set with MYB mRNA (setting [1]), in the data set with MYB mRNA (setting [2]), in the data set on HTT, with HTT mRNA (setting [3]) and in the data set on HTT mRNA (setting [4]) was 100 to 1000 nM in each case. In addition, the AC50 in the data set on MYB mRNA (RT-qPCR) and in the data set on HTT mRNA (RT-qPCR) was 100 to 1000 nM each time. Moreover, the “Effect of Exemplary Compounds on Cell Viability, K562” value (“Effect of Exemplary Compounds” below) in the data set with K562 cells is on record as “B (B represents 100-1000 nM)”.
Regarding `Cc1cc2nc(-c3ccc4nc(N5CCC(NC(C)(C)C)C5)ccc4n3)cn2c(C)n1` (stereo not drawn) [Compound 344, N-tert-butyl-1-(6-{5,7-dimethylimidazo[1,2-c]pyrimidin-2-yl}-1,5-naphthyridin-2-yl)pyrrolidin-3-amine], the IC50 in the data set with Target C, in the data set on MYB mRNA (setting [1]), with MYB mRNA (setting [2]), with HTT, with HTT mRNA (setting [3]) and with HTT mRNA (setting [4]) was 1000 to 10000 nM throughout. The AC50 in the data set on MYB mRNA (RT-qPCR) and in the data set with HTT mRNA (RT-qPCR) was 1000 to 10000 nM throughout. Besides, in the data set on K562 cells, the “Effect of Exemplary Compounds” value is reported as “D (D represents greater than 10 μM in K562 cells)”.
As for `CCc1nc2cc(O)c(-c3ccc4nc(N5CCC(NC(C)(C)C)C5)ccc4n3)cc2o1` (stereo not drawn) [Compound 346, 6-{6-[3-(tert-butylamino)pyrrolidin-1-yl]-1,5-naphthyridin-2-yl}-2-ethyl-1,3-benzoxazol-5-ol], the IC50 in the data set with Target C, in the data set on MYB mRNA (setting [1]), in the data set on MYB mRNA (setting [2]), with HTT, in the data set with HTT mRNA (setting [3]) and in the data set with HTT mRNA (setting [4]) was 1000 to 10000 nM each time. Also, the concentration at half-maximal activity (AC50) in the data set with MYB mRNA (RT-qPCR) and in the data set on HTT mRNA (RT-qPCR) was 1000 to 10000 nM in each case. In the data set on K562 cells, the “Effect of Exemplary Compounds” value is on record as “C (C represents 1000-9999 nM)”.
`Cc1nc2cc(O)c(-c3ccc4nc(N5CC[C@H](N[C@H]6C[C@H](F)C6)C5)ccc4n3)cc2o1` [Compound 350, 2-methyl-6-{6-[(3S)-3-{[(1r,3r)-3-fluorocyclobutyl]amino}pyrrolidin-1-yl]-1,5-naphthyridin-2-yl}-1,3-benzoxazol-5-ol]: the IC50 in the data set on Target C was 100 to 1000 nM; with MYB mRNA (setting [1]), 100 to 1000 nM; in the data set on MYB mRNA (setting [2]), 100 to 1000 nM; with HTT, less than 100 nM; in the data set on HTT mRNA (setting [3]), less than 100 nM; with HTT mRNA (setting [4]), less than 100 nM. Also, the AC50 in the data set on MYB mRNA (RT-qPCR) was 100 to 1000 nM; in the data set on HTT mRNA (RT-qPCR) it was less than 100 nM. In addition, in the data set on K562 cells, the “Effect of Exemplary Compounds” value is on record as “B (B represents 100-1000 nM)”.
